Source: patent US11472791B2 (Incyte Corporation, priority 2019, dated 2022)

target: CDK2/Cyclin E1 (Homo sapiens (Human), UniProt P24941); experiment: CDK2/Cyclin E1 HTRF enzyme activity assay; assay type: biochemical; conditions: 1 mM ATP
Method: Assays are conducted in white 384-well polystyrene plates in a final reaction volume of 8 μL. […] HTRF signals are read after 1 hour at room temperature on a PHERAstar FS plate reader (BMG Labtech). Data is analyzed with IDBS XLFit and GraphPad Prism 5.0 software using a three or four parameter dose response curve to determine IC50 for each compound.

SMILES	IC50 [nM]
CC(C)(O)Cn1cc(-c2nc(NC3CCN(S(=O)(=O)CCCN4CCCCC4)CC3)ncc2C(F)(F)F)cn1 [Example 67, 2-Methyl-1-(4-(2-((1-((3-(piperidin-1-yl)propyl)sulfonyl)piperidin-4-yl)amino)-5-(trifluoromethyl)pyrimidin-4-yl)-1H-pyrazol-1-yl)propan-2-ol]	< 50
CC(C)(O)Cn1cc(-c2nc(N[C@H]3CCN(S(C)(=O)=O)C[C@H]3F)ncc2C(F)(F)F)cn1 [Example 58, 1-(4-(2-(((3R,4S)-3-Fluoro-1-(methylsulfonyl)piperidin-4-yl)amino)-5-(trifluoromethyl)pyrimidin-4-yl)-1H-pyrazol-1-yl)-2-methylpropan-2-ol]	< 50
CS(=O)(=O)N1CCC(Nc2ncc(C#N)c(-c3cnn(-c4ccc(CN[C@@H]5CCCC[C@H]5CO)cc4Cl)c3)n2)CC1 [Example 288]	< 50
Cc1cc(CN2CCN(C)CC2)ccc1-n1cc(-c2nc(NC3CCN(S(=O)(=O)c4cn(C)cn4)CC3)ncc2Cl)cn1 [Example 109, 5-Chloro-N-(1-((1-methyl-1H-imidazol-4-yl)sulfonyl)piperidin-4-yl)-4-(1-(2-methyl-4-((4-methylpiperazin-1-yl)methyl)phenyl)-1H-pyrazol-4-yl)pyrimidin-2-amine]	< 50
CN1CCN(Cc2ccc(-n3cc(-c4nc(NC5CCN(S(=O)(=O)c6cn(C)cn6)CC5)ncc4C#N)cn3)c(Cl)c2)CC1 [Example 261, 4-(1-(2-Chloro-4-((4-methylpiperazin-1-yl)methyl)phenyl)-1H-pyrazol-4-yl)-2-((1-((1-methyl-1H-imidazol-4-yl)sulfonyl)piperidin-4-yl)amino)pyrimidine-5-carbonitrile]	< 50
CC(=O)N1CCN(Cc2ccc(-n3cc(-c4nc(NC5CCN(S(=O)(=O)c6cn(C)cn6)CC5)ncc4C(F)(F)F)cn3)c(C)c2)CC1 [Example 105, 1-(4-(3-Methyl-4-(4-(2-((1-((1-methyl-1H-imidazol-4-yl)sulfonyl)piperidin-4-yl)amino)-5-(trifluoromethyl)pyrimidin-4-yl)-1H-pyrazol-1-yl)benzyl)piperazin-1-yl)ethan-1-one]	< 50
CC(C)(O)Cn1cc(-c2nc(N[C@H]3CCN(S(=O)(=O)CCCN4CCCC4)C[C@H]3F)ncc2C(F)(F)F)cn1 [Example 203, 1-(4-(2-(((3R,4S)-3-Fluoro-1-((3-(pyrrolidin-1-yl)propyl)sulfonyl)piperidin-4-yl)amino)-5-(trifluoromethyl)pyrimidin-4-yl)-1H-pyrazol-1-yl)-2-methylpropan-2-ol]	< 50
CCOC(=O)N1CCC(NCc2ccc(-n3cc(-c4nc(NC5CCN(S(C)(=O)=O)CC5)ncc4C#N)cn3)c(Cl)c2)CC1 [Example 197, Ethyl 4-((3-chloro-4-(4-(5-cyano-2-((1-(methylsulfonyl)piperidin-4-yl)amino)pyrimidin-4-yl)-1H-pyrazol-1-yl)benzyl)amino)piperidine-1-carboxylate]	< 50
CS(=O)(=O)N1CCC(Nc2ncc(C#N)c(-c3cnn(-c4ccc(CN[C@H]5C[C@](C)(O)C5)cc4Cl)c3)n2)CC1 [Example 191, 4-(1-(2-Chloro-4-((((1r,3r)-3-hydroxy-3-methylcyclobutyl)amino)methyl)phenyl)-1H-pyrazol-4-yl)-2-((1-(methylsulfonyl)piperidin-4-yl)amino)pyrimidine-5-carbonitrile]	< 50
CC(O)(Cn1cc(-c2nc(NC3CCN(S(C)(=O)=O)CC3)ncc2C(F)(F)F)cn1)C(F)(F)F (racemic) [Example 95, (±)-1,1,1-Trifluoro-2-methyl-3-(4-(2-((1-(methylsulfonyl)piperidin-4-yl)amino)-5-(trifluoromethyl)pyrimidin-4-yl)-1H-pyrazol-1-yl) propan-2-ol]	< 50
CS(=O)(=O)N1CCC(Nc2ncc(C#N)c(-c3cnn(-c4ccc(CN[C@H]5C[C@H](O)C5)cc4Cl)c3)n2)CC1 [Example 161, 4-(1-(2-Chloro-4-((((1r,3r)-3-hydroxycyclobutyl)amino)methyl)phenyl)-1H-pyrazol-4-yl)-2-((1-(methylsulfonyl)piperidin-4-yl)amino)pyrimidine-5-carbonitrile]	< 50
C[C@H](O)CNCc1ccc(-n2cc(-c3nc(NC4CCN(S(C)(=O)=O)CC4)ncc3C#N)cn2)c(Cl)c1 [Example 292, (S)-4-(1-(2-Chloro-4-(((2-hydroxypropyl)amino)methyl)phenyl)-1H-pyrazol-4-yl)-2-((1-(methylsulfonyl)piperidin-4-yl)amino)pyrimidine-5-carbonitrile]	< 50
[2H]C([2H])([2H])NCc1ccc(-n2cc(-c3nc(NC4CCN(S(=O)(=O)CC)CC4)ncc3C#N)cn2)c(Cl)c1 [Example 139, 4-(1-(2-Chloro-4-(((methyl-d3)amino)methyl)phenyl)-1H-pyrazol-4-yl)-2((1-(ethylsulfonyl)piperidin-4-yl)amino)pyrimidine-5-carbonitrile]	< 50
CS(=O)(=O)N1CCC(Nc2ncc(C#N)c(-c3cnn(-c4ccc(CN[C@H]5CCC[C@@H]5O)cc4Cl)c3)n2)CC1 [Example 187, 4-(1-(2-Chloro-4-((((1S,2S)-2-hydroxycyclopentyl)amino)methyl)phenyl)-1H-pyrazol-4-yl)-2-((1-(methylsulfonyl)piperidin-4-yl)amino)pyrimidine-5-carbonitrile]	< 50
CC(C)(O)CCS(=O)(=O)N1CCC(Nc2ncc(C(F)(F)F)c(-c3cnn(CC(C)(C)O)c3)n2)CC1 [Example 94, 4-((4-((4-(1-(2-Hydroxy-2-methylpropyl)-1H-pyrazol-4-yl)-5-(trifluoromethyl)pyrimidin-2-yl)amino)piperidin-1-yl)sulfonyl)-2-methylbutan-2-ol]	< 50
COC(=O)NCC1(NCc2ccc(-n3cc(-c4nc(NC5CCN(S(C)(=O)=O)CC5)ncc4C#N)cn3)c(Cl)c2)CCCC1 [Example 282, Methyl ((1-((3-chloro-4-(4-(5-cyano-2-((1-(methylsulfonyl)piperidin-4-yl)amino)pyrimidin-4-yl)-1H-pyrazol-1-yl)benzyl)amino)cyclopentyl)methyl)carbamate]	< 50
CN1CCC(n2cc(-c3nc(NC4CCN(S(C)(=O)=O)CC4)ncc3F)c(C(F)(F)F)n2)CC1 [Example 17, 5-Fluoro-4-(1-(1-methylpiperidin-4-yl)-3-(trifluoromethyl)-1H-pyrazol-4-yl)-N-(1-(methylsulfonyl)piperidin-4-yl)pyrimidin-2-amine]	< 50
CS(=O)(=O)N1CCC(Nc2ncc(C#N)c(-c3cnn(-c4ccc(CN[C@H]5CCC[C@H](O)C5)cc4Cl)c3)n2)CC1 [Example 181, 4-(1-(2-Chloro-4-((((1S,3S)-3-hydroxycyclohexyl)amino)methyl)phenyl)-1H-pyrazol-4-yl)-2((1-(methylsulfonyl)piperidin-4-yl)amino)pyrimidine-5-carbonitrile]	< 50
CC(C)(O)Cn1cc(-c2nc(NC3CCN(S(=O)(=O)CCCN4CCC(C#N)CC4)CC3)ncc2C(F)(F)F)cn1 [Example 76, 1-(3-((4-((4-(1-(2-Hydroxy-2-methylpropyl)-1H-pyrazol-4-yl)-5-(trifluoromethyl)pyrimidin-2-yl)amino)piperidin-1-yl)sulfonyl)propyl)piperidine-4-carbonitrile]	< 50
CNCc1ccc(-n2cc(-c3nc(N[C@H]4CCN(S(=O)(=O)C5CC5)C[C@H]4F)ncc3C(F)(F)F)cn2)c(C)c1 [Example 123, N-((3R,4S)-1-(Cyclopropylsulfonyl)-3-fluoropiperidin-4-yl)-4-(1-(2-methyl-4-((methylamino)methyl)phenyl)-1H-pyrazol-4-yl)-5-(trifluoromethyl)pyrimidin-2-amine]	< 50
CC(C)(O)Cn1cc(-c2nc(NC3CCN(S(=O)(=O)CCCN4CC(O)C4)CC3)ncc2C(F)(F)F)cn1 [Example 225, 1-(3-((4-((4-(1-(2-Hydroxy-2-methylpropyl)-1H-pyrazol-4-yl)-5-(trifluoromethyl)pyrimidin-2-yl)amino)piperidin-1-yl)sulfonyl)propyl)azetidin-3-ol]	< 50
CS(=O)(=O)N1CCC(Nc2ncc(C(F)(F)F)c(-c3cnn([C@H]4CC[C@H](C#N)CC4)c3)n2)CC1 [Example 34, trans-4-(4-(2-((1-(Methylsulfonyl)piperidin-4-yl)amino)-5-(trifluoromethyl)pyrimidin-4-yl)-1H-pyrazol-1-yl)cyclohexane-1-carbonitrile]	< 50
CCNCc1ccc(-n2cc(-c3nc(N[C@H]4CCN(S(=O)(=O)c5cn(C)cn5)C[C@H]4C)ncc3C#N)cn2)c(C)n1 [Example 273, 4-(1-(6-((Ethylamino)methyl)-2-methylpyridin-3-yl)-1H-pyrazol-4-yl)-2-(((3R,4S)-3-methyl-1-((1-methyl-1H-imidazol-4-yl)sulfonyl)piperidin-4-yl)amino)pyrimidine-5-carbonitrile]	< 50
CS(=O)(=O)N1CCC(Nc2ncc(C#N)c(-c3cnn(-c4ccc(CN[C@H]5CC[C@H](O)CC5)cc4Cl)c3)n2)CC1 [Example 182, 4-(1-(2-Chloro-4-((((1r,4r)-4-hydroxycyclohexyl)amino)methyl)phenyl)-1H-pyrazol-4-yl)-2-((1-(methylsulfonyl)piperidin-4-yl)amino)pyrimidine-5-carbonitrile]	< 50
CC(C)(O)Cn1cc(-c2nc(NC3CCN(S(=O)(=O)CCO)CC3)ncc2C(F)(F)F)cn1 [Example 227, 1-(4-(2-((1-((2-Hydroxyethyl)sulfonyl)piperidin-4-yl)amino)-5-(trifluoromethyl)pyrimidin-4-yl)-1H-pyrazol-1-yl)-2-methylpropan-2-ol]	< 50
CS(=O)(=O)N1CCC(Nc2ncc(C#N)c(-c3cnn(-c4ccc(CN[C@@H]5CCCC[C@H]5O)cc4Cl)c3)n2)CC1 [Example 178, 4-(1-(2-Chloro-4-((((1R,2R)-2-hydroxycyclohexyl)amino)methyl)phenyl)-1H-pyrazol-4-yl)-2-((1-(methylsulfonyl)piperidin-4-yl)amino)pyrimidine-5-carbonitrile]	< 50
